Laboratory results taken from patent US12595248B2, “PRMT5 inhibitors” (Merck Sharp & Dohme LLC, priority 2019, dated 2026).
Read-outs that look alike come from different tables or passages of the source.

Columns and labels:
[1] = target: T1, PRMT5 (Homo sapiens, UniProt O14744); test: PRMT5 Cell Target Engagement (TE) Assay; type: cell-based; details: MCF-7 cells, treated for 3 days, symmetric dimethylation of arginine (SDMA) by high content imaging
T1 construct: seeded with 4000 MCF-7 cells in 30 μl media; endogenous in cells; host or cells: MCF-7 cells
T1 sequence (O14744 whole entry): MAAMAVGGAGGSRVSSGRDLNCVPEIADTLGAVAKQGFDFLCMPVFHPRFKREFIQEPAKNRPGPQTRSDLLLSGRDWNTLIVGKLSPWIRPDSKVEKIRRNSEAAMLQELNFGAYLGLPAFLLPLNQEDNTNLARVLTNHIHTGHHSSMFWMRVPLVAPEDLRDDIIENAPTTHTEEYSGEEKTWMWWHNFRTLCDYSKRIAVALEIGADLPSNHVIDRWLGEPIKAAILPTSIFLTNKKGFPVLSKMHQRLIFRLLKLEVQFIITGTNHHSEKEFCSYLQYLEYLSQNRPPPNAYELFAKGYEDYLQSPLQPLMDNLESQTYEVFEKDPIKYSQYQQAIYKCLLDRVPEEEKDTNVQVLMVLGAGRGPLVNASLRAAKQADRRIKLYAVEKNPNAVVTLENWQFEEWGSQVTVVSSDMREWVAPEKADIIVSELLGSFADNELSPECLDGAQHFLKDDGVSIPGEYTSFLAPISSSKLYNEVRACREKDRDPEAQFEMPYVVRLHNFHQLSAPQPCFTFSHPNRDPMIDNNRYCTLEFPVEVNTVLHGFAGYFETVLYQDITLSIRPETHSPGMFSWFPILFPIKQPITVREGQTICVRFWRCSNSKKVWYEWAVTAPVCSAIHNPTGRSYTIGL
T1 sequence (Q9BQA1 whole entry partner): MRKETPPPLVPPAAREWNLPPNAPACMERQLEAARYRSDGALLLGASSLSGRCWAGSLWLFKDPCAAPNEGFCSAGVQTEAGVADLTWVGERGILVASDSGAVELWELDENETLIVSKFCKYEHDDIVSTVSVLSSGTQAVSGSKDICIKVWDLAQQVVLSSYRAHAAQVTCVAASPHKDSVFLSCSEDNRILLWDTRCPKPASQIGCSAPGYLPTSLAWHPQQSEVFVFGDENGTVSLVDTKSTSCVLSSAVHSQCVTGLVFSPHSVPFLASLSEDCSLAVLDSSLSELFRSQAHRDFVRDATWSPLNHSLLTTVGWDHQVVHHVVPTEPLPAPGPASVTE
Method in brief: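 Readout is single-cell nuclear symmetric-dimethylarginine immunofluorescence (Alexa488), normalized to DMSO-treated cells. Compounds were applied to MCF-7 cells for 3 days at 37 °C, top concentration 10000 nM in 1:3 steps over ten points; curves fitted with 4-parameter robust fit.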

[2] = target: T2, PRMT5-MEP50 enzyme complex (Homo sapiens, UniProt O14744); test: PRMT5-MEP50 Enzyme Methylation Assay (Version A); type: biochemical
T2 construct: Full-length (FL)-PRMT5-MEP50 enzyme complex (recombinant proteins from baculovirus-transfected Sf21 cells: FL-PRMT5; MW=73837 kDa and FL-MEP50; MW=38614); made in house; host or cells: baculovirus-transfected Sf21 cells
T2 sequence (O14744 whole entry): as the sequence (O14744 whole entry) above
T2 sequence (Q9BQA1 whole entry partner): as the sequence (Q9BQA1 whole entry partner) above
Description: PRMT5-MEP50 Enzyme Methylation Assay (Version A)
PRMT5-MEP50 biochemical assay is a direct measurement of the methylation activity of the enzyme complex on a short peptide substrate derived from the N-terminus of H4 histone. Methylation experiment was performed with recombinant PRMT5-MEP50 protein complex. The assessment of inhibitory effect of small molecules was measured by the effectiveness of the compounds to inhibit this reaction (EC50).
In this assay, the potency (EC50) of each compound was determined from a twenty-point (1:2 serial dilution; top compound concentration of 100000 nM) titration curve using the following outlined procedure. To each well of a white ProxiPlus 384 well-plate, 100 nL of compound (1% DMSO in final assay volume of 10 μL) was dispensed, followed by the addition of 8 μL of 1× assay buffer (50 mM Bicine pH 8.0, 1 mM DTT, 0.004% Tween20, 0.01% BSA) containing 1.25 nM of Full-length (FL)-PRMT5-MEP50 enzyme complex (recombinant proteins from baculovirus-transfected Sf21 cells: FL-PRMT5; MW=[…] and FL-MEP50; MW=38614) and 1 μL of 150 μM S-(5′-Adenosyl)-L-Methionine Chloride (SAM). A plate was sealed and placed in a 37° C. humidified chamber for a 60 minutes pre-incubation with compound. Subsequently, each reaction was initiated by the addition of 1 μL 1× assay buffer containing 750 nM biotinylated H4R3 (MeI) peptide. The final reaction in each well of 10 μL consists of 1.0 nM PRMT5-MEP50, 75 nM biotinylated-peptide, and 15 μM SAM. Methylation reactions were allowed to proceed for 150 minutes in a sealed plate at 37° C. Reactions were immediately quenched by the addition of 1 μL of 5% formic acid. A plate was then frozen and shipped to SAMDI™ Tech Inc. to determine the percent conversion from H4R3 (MeI) to H4R3 (Me2). Dose-response curves were generated by plotting percent effect (% product conversion; Y-axis) vs. Log 10 compound concentrations (X-axis). EC50 values were determined by non-linear regression according to models for either sigmoidal (4 parameters) or biphasic (7 parameters) dose-response curves.

[3] = only one EC50 shown: 4 parameters single site sigmoidal model, 60 min pre-incubation with SAM, read-out: Enzyme Methylation Assay Version A (EC50)
[4] = first of two EC50s: 7 parameters biphasic model, read-out: Enzyme Methylation Assay Version A (EC50_1)
[5] = second of two EC50s: 7 parameters biphasic model, read-out: Enzyme Methylation Assay Version A (EC50_2)

SMILES | EC50 [1] [nM] | EC50 [2, 3] [nM] | EC50 [2, 4] [nM] | EC50 [2, 5] [nM]
O=C(c1ccc2c(c1)NCCN(C1CCOC1)C2=O)N1CC[C@H](N2CCc3ccccc3C2)[C@@H](O)C1 (stereo partly drawn) [Example 65, 8-((3S,4S)-4-(3,4-dihydroisoquinolin-2(1H)-yl)-3-hydroxypiperidine-1-carbonyl)-4-(tetrahydrofuran-3-yl)-1,2,3,4-tetrahydro-5H-benzo[e][1,4]diazepin-5-one] | 9.6 | 3.5 |  | 
CCN1CCNc2cc(C(=O)N3CC[C@H](N4CCc5ccccc5C4)[C@@H](O)C3)ccc2C1=O [Example 64, 8-((3S,4S)-4-(3,4-dihydroisoquinolin-2(1H)-yl)-3-hydroxypiperidine-1-carbonyl)-4-ethyl-1,2,3,4-tetrahydro-5H-benzo[e][1,4]diazepin-5-one] | 45 |  | 1.9 | 1660
CO[C@H](C)c1cc(C)cn2cc(C(=O)N3CC[C@H](N4CCc5ccccc5C4)[C@@H](O)C3)nc12 [Example 59, [(3S,4S)-4-(3,4-dihydroisoquinolin-2(1H)-yl)-3-hydroxypiperidin-1-yl]{8-[(1R)-1-methoxyethyl]-6-methylimidazo[1,2-a]pyridin-2-yl}methanone] | 4.4 | 0.5 |  | 
COc1nc2nc(C(=O)N3CC[C@H](N4CCc5ccccc5C4)[C@@H](O)C3)cn2cc1Br [Example 69, (6-bromo-7-methoxyimidazo[1,2-a]pyrimidin-2-yl)((3S,4S)-4-(3,4-dihydroisoquinolin-2(1H)-yl)-3-hydroxypiperidin-1-yl)methanone] | 55 |  | 1.2 | 733
O=C1Nc2cc(C(=O)N3CC[C@H](N4CCc5ccccc5C4)[C@@H](O)C3)ccc2OC1C1CC1 (single isomer, unassigned) [Example 80] | 2.5 | 0.7 |  | 
Cc1cnc2nc(C(=O)N3CC[C@H](N4CCc5ccccc5C4)[C@@H](O)C3)cn2c1 [Example 72, [(3S,4S)-4-(3,4-dihydroisoquinolin-2(1H)-yl)-3-hydroxypiperidin-1-yl](6-methylimidazo[1,2-a]pyrimidin-2-yl)methanone] | 37 |  | 0.9 | 248

Further lines, results first:

EC50 [1] [nM] | EC50 [2, 3] [nM] | EC50 [2, 4] [nM] | EC50 [2, 5] [nM] | SMILES
33 |  | 5.2 | 4270 | CC(=O)N1C[C@H]2CC[C@@H](C1)C2Nc1cc(C(=O)N2CC[C@H](N3CCc4ccccc4C3)[C@@H](O)C2)c(F)cn1 (stereo partly drawn) [Example 124, 1-((1R,5S)-8-((4-((3S,4S)-4-(3,4-dihydroisoquinolin-2(1H)-yl)-3-hydroxypiperidine-1-carbonyl)-5-fluoropyridin-2-yl)amino)-3-azabicyclo[3.2.1]octan-3-yl)ethan-1-one]
8.1 | 1.4 |  |  | CN(C)C(=O)N1CCC(Nc2cc(C(=O)N3CC[C@H](N4CCc5ccccc5C4)[C@@H](O)C3)c(F)cn2)CC1 [Example 110, 4-((4-((3S,4S)-4-(3,4-dihydroisoquinolin-2(1H)-yl)-3-hydroxypiperidine-1-carbonyl)-5-fluoropyridin-2-yl)amino)-N,N-dimethylpiperidine-1-carboxamide]
59 |  | 1.6 | 5010 | O=C1Nc2cc(C(=O)N3CC[C@H](N4CCc5ccccc5C4)[C@@H](O)C3)ccc2OC1C1CC1 (single isomer, unassigned) [Example 81]
6.6 | 3.9 |  |  | O=C(c1cc(NC2CCN3C(=O)CCC3C2)ncc1F)N1CC[C@H](N2CCc3ccccc3C2)[C@@H](O)C1 (single isomer, unassigned) [Example 116]
10 |  | 1.5 | 905 | O=C(c1ccc2c(c1)NCCN(CC(F)(F)F)C2=O)N1CC[C@H](N2CCc3ccccc3C2)[C@@H](O)C1 [Example 102, 8-((3S,4S)-4-(3,4-dihydroisoquinolin-2(1H)-yl)-3-hydroxypiperidine-1-carbonyl)-4-(2,2,2-trifluoroethyl)-1,2,3,4-tetrahydro-5H-benzo[e][1,4]diazepin-5-one]
